Data on 22 compounds can be found in US8791123B2, “Substituted pyrazolo[1,5-a]pyrimidine compounds as Trk kinase inhibitors” (Array Biopharma, Inc., priority 2009, dated 2014).

In test [1] the target is TrkA (histidine-tagged recombinant human TrkA, cytoplasmic domain) (Homo sapiens (Human), UniProt P04629). Nature of the test: TrkA ELISA Assay. It counts as biochemical. Conditions: Table 1; ELISA, 500 μM ATP; read-out: TrkA Enzyme IC50. How it is done: An enzyme-linked immunosorbant assay (ELISA) was used to assess TrkA kinase activity in the presence of inhibitors. Immulon 4HBX 384-well microtiter plates (Thermo part #8755) were coated with a 0.025 mg/mL solution of poly (Glu, Ala, Tyr; 6:3:1; Sigma P3899). […] The reaction mixture was removed from the plate by washing with PBS containing 0.1% (v/v) Tween 20. The phosphorylated reaction product was detected using 0.2 μg/mL of a phosphotyrosine specific monoclonal antibody (clone PY20) conjugated to horseradish peroxidase in conjunction with the TMB Peroxidase Substrate System (KPL). After the addition of 1M phosphoric acid, the chromogenic substrate color intensity was quantitated via absorbance at 450 nm.

Test [2] deals with Human Jak2 kinase domain (Homo sapiens (Human), UniProt O60674). Nature of the test: Jak2 Inhibition Assay (Omnia kinase assay). Type of test: biochemical. Conditions: read-out: Jak2 Enzyme IC50. How it is done:
The assays described in Examples C, D, E and F for the determination of JAK1, JAK2, JAK3 and Tyk2 kinase activity, respectively, utilized the Omnia® Kinase fluorescence peptide substrate-based technology (Invitrogen). […] The reactions were therefore read at excitation 360 nm and emission was measured at 485 nm every 50 seconds for 45 minutes using a PerkinElmer EnVision Multilabel Plate Reader.
The final buffer conditions for each of the JAK1, JAK2, JAK3 and Tyk2 assays were as follows: 25 mM HEPES, pH 7.4, 10 mM MgCl2, 0.01% Triton X-100 and 1 mM DTT.
Two-μL aliquots of these were transferred to a fresh plate for a ten-fold intermediate dilution with assay buffer. Five-μL aliquots of the diluted compounds were then transferred to 20-μL of assay mixtures described in Examples C, D, E and F for a final concentration of DMSO of 2%. […] For each plate, percent of control (POC) values were calculated for each well according to the following equation:
[formula] • where • Xmax=Average Uninhibited Controls • Xmin=Average Background IC50's were estimated from the POC's using a standard 4-parameter logistic model:
[formula] • where • A=Minimum Y (Bottom Asymptote) • B=Maximum Y (Top Asymptote) • C=EC50 • D=Slope Factor • X=Compound Concentration (nM) • Y=POC
The IC50 is defined as the concentration of inhibitor at which the POC equals 50 for the fitted curve.
Compounds of Formula I were screened for their ability to inhibit Jak2 using the general enzyme inhibition assay method, in which the assay mixture contained 500 μM ATP, 10 μM Omnia® Y7 peptide (Catalog # IVGN KNZ3071C, Invitrogen Corporation, Carlsbad, Calif.) and 4 nM Jak2 in a total volume of 20 μL. Human Jak2 kinase domain comprising amino acids 808-1132 was purchased from Invitrogen Corporation, Carlsbad, Calif. (catalog # IVGN PV4210).

Setting [3] is: Table 1, 500 μM ATP, >1000 nM when >50% inhibition not observed at 1000 nM.

Where two headings read alike, the source gives them in different places.

Chain of TrkA (histidine-tagged recombinant human TrkA, cytoplasmic domain) (P04629 440-796): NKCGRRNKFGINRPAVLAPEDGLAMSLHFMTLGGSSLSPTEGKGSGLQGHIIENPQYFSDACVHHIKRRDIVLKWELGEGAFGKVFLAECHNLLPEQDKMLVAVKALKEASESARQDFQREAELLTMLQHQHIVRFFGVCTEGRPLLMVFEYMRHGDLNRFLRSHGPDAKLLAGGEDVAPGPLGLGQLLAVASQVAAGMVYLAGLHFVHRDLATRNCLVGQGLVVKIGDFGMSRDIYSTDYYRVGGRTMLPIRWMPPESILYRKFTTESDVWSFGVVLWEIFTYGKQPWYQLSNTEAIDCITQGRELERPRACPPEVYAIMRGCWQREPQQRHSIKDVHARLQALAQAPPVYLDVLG
Chain of Human Jak2 kinase domain (O60674 808-1132): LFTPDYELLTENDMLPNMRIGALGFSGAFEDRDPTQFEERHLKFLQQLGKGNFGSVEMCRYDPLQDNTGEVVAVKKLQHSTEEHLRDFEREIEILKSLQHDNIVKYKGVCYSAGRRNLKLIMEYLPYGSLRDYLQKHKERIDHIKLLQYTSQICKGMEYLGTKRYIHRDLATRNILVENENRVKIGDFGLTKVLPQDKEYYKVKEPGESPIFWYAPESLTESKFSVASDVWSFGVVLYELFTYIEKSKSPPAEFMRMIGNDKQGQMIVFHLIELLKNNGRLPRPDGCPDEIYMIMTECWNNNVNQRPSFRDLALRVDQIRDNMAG

Regarding `COc1ccc(F)cc1[C@H]1CCCN1c1ccn2ncc(C(=O)NCCN3CCOCC3)c2n1` [Example 54, (R)-5-(2-(5-fluoro-2-methoxyphenyl)pyrrolidin-1-yl)-N-(2-morpholinoethyl)pyrazolo[1,5-a]pyrimidine-3-carboxamide], the values for the half-inhibitory concentration (IC50) in test [1] and in test [2] were 0.00225 µM and > 1 µM, respectively.
In the case of `O=C(NCC(F)F)c1cnn2ccc(N3CCC[C@@H]3c3cncc(F)c3)nc12` [Example 134, (R)-N-(2,2-difluoroethyl)-5-(2-(5-fluoropyridin-3-yl)pyrrolidin-1-yl)pyrazolo[1,5-a]pyrimidine-3-carboxamide], the 50% inhibitory concentration (IC50) is 0.0074 µM in test [1] and > 1 µM in test [2] (setting [3]).
On to `COc1ncc(F)cc1[C@H]1CCCN1c1ccn2ncc(C(=O)NC[C@@H](O)CO)c2n1` [Example 150, N-((R)-2,3-dihydroxypropyl)-5-((R)-2-(5-fluoro-2-methoxypyridin-3-yl)pyrrolidin-1-yl)pyrazolo[1,5-a]pyrimidine-3-carboxamide], for which the half-maximal inhibitory concentration (IC50) was 0.0057 µM in test [1] and > 1 µM in test [2] (setting [3]).
With `O=C(NCCc1c[nH]cn1)c1cnn2ccc(N3CCC[C@@H]3c3cc(F)ccc3F)nc12` [Example 25, (R)—N-(2-(1H-imidazol-4-yl)ethyl)-5-(2-(2,5-difluorophenyl)pyrrolidin-1-yl)pyrazolo[1,5-a]pyrimidine-3-carboxamide], the concentration for half-maximal inhibition (IC50) was 0.0004 µM in test [1] and > 1 µM in test [2] (setting [3]).
As to `CN1CCN(CCNC(=O)c2cnn3ccc(N4CCC[C@@H]4c4cc(F)ccc4F)nc23)CC1` [Example 171, 5-((R)-2-(2,5-difluorophenyl)pyrrolidin-1-yl)-N-(2-(4-methylpiperazin-1-yl)ethyl)pyrazolo[1,5-a]pyrimidine-3-carboxamide], the IC50 in test [1] was 0.0047 µM; in test [2] (setting [3]), > 1 µM.
For `CC(C)[C@H](CO)NC(=O)c1cnn2ccc(N3CCC[C@@H]3c3cncc(F)c3)nc12` [Example 122, 5-((R)-2-(5-fluoropyridin-3-yl)pyrrolidin-1-yl)-N-((R)-1-hydroxy-3-methylbutan-2-yl)pyrazolo[1,5-a]pyrimidine-3-carboxamide], the 50% inhibitory concentration (IC50) in test [1] was 0.0332 µM; in test [2] (setting [3]), > 1 µM.
As to `O=C(c1cnn2ccc(N3CCC[C@@H]3c3cncc(F)c3)nc12)N1CC(CO)C1` [Example 127, (R)-(5-(2-(5-fluoropyridin-3-yl)pyrrolidin-1-yl)pyrazolo[1,5-a]pyrimidin-3-yl)(3-(hydroxymethyl)azetidin-1-yl)methanone], the IC50 in test [1] was 0.47 µM; in test [2] (setting [3]) it was > 1 µM.
Turning to `Nc1ncc(F)cc1[C@H]1CCCN1c1ccn2ncc(C(=O)N3CCC3)c2n1` [Example 221, (R)-(5-(2-(2-amino-5-fluoropyridin-3-yl)pyrrolidin-1-yl)pyrazolo[1,5-a]pyrimidin-3-yl)(azetidin-1-yl)methanone], the figures for the 50% inhibitory concentration (IC50) in test [1] and in test [2] (setting [3]) were 0.0493 µM and > 1 µM, respectively.
On the same counts, the results for `Cn1cnc(CNC(=O)c2cnn3ccc(N4CCC[C@@H]4c4cc(F)ccc4F)nc23)c1` [Example 21, (R)-5-(2-(2,5-difluorophenyl)pyrrolidin-1-yl)-N-((1-methyl-1H-imidazol-4-yl)methyl)pyrazole[1,5-a]pyrimidine-3-carboxamide] are 0.00295 µM and > 1 µM.
As to `COc1ncc(F)cc1[C@H]1CCCN1c1ccn2ncc(C(=O)NC(C)(C)CF)c2n1` [Example 81, (R)-5-(2-(5-fluoro-2-methoxypyridin-3-yl)pyrrolidin-1-yl)-N-(1-fluoro-2-methylpropan-2-yl)pyrazolo[1,5-a]pyrimidine-3-carboxamide], the results for the IC50 in test [1] and in test [2] were 0.00115 µM and 0.666 µM, respectively.
In the case of `CC1(C)OCC(COc2cc(F)cc([C@H]3CCCN3c3ccn4ncc(C(=O)NC5CC5)c4n3)c2)O1` (stereo partly drawn) [Example 206, N-cyclopropyl-5-((2R)-2-(3-((2,2-dimethyl-1,3-dioxolan-4-yl)methoxy)-5-fluorophenyl)pyrrolidin-1-yl)pyrazolo[1,5-a]pyrimidine-3-carboxamide], the IC50 in test [1] is 0.0039 µM; in test [2] (setting [3]), > 1 µM.
For the compound `COc1ncc(F)cc1[C@H]1CCCN1c1ccn2ncc(C(=O)NC3CCN(S(C)(=O)=O)CC3)c2n1` [Example 162, (R)-5-(2-(5-fluoro-2-methoxypyridin-3-yl)pyrrolidin-1-yl)-N-(1-(methylsulfonyl)piperidin-4-yl)pyrazolo[1,5-a]pyrimidine-3-carboxamide], the 50% inhibitory concentration (IC50) in test [1] was 0.0022 µM; in test [2] (setting [3]), 0.444 µM.
As for `CC1(O)CN(C(=O)c2cnn3ccc(N4CCC[C@@H]4c4cc(F)ccc4F)nc23)C1` [Example 32, (R)-(5-(2-(2,5-difluorophenyl)pyrrolidin-1-yl)pyrazolo[1,5-a]pyrimidin-3-yl)(3-hydroxy-3-methylazetidin-1-yl)methanone], the results for the 50% inhibitory concentration (IC50) in test [1] and in test [2] (setting [3]) were 0.0053 µM and > 1 µM, respectively.
For the compound `NC(=O)c1cnn2ccc(N3CCC[C@@H]3c3cc(F)cc(OCC(O)CO)c3)nc12` (stereo partly drawn) [Example 209, 5-((2R)-2-(3-(2,3-dihydroxypropoxy)-5-fluorophenyl)pyrrolidin-1-yl)pyrazolo[1,5-a]pyrimidine-3-carboxamide], the results for the IC50 in test [1] and in test [2] (setting [3]) were 0.0171 µM and > 1 µM, respectively.
In the case of `CC1(C)OCC(COc2ccc(F)cc2[C@H]2CCCN2c2ccn3ncc(C(=O)NC4CC4)c3n2)O1` (stereo partly drawn) [Example 204, N-cyclopropyl-5-((2R)-2-(2-((2,2-dimethyl-1,3-dioxolan-4-yl)methoxy)-5-fluorophenyl)pyrrolidin-1-yl)pyrazolo[1,5-a]pyrimidine-3-carboxamide], the IC50 in test [1] was 0.0166 µM; in test [2] (setting [3]) it was > 1 µM.
On the same counts, the results for `CCc1ncc(F)cc1[C@H]1CCCN1c1ccn2ncc(C(=O)N[C@H]3CC[C@H](O)C3)c2n1` [Example 200, 5-((R)-2-(2-ethyl-5-fluoropyridin-3-yl)pyrrolidin-1-yl)-N-((1S,3S)-3-hydroxycyclopentyl)pyrazolo[1,5-a]pyrimidine-3-carboxamide] are 0.0127 µM and > 1 µM.
On the same counts, the results for `O=C(NCC(F)CCl)c1cnn2ccc(N3CCC[C@@H]3c3cncc(F)c3)nc12` (stereo partly drawn) [Example 97, N-(3-chloro-2-fluoropropyl)-5-((R)-2-(5-fluoropyridin-3-yl)pyrrolidin-1-yl)pyrazolo[1,5-a]pyrimidine-3-carboxamide] are 0.0062 µM and > 1 µM.
In the case of `Cn1cc(F)cc([C@H]2CCCN2c2ccn3ncc(C(=O)NC4(C)CC4)c3n2)c1=O` [Example 237, (R)-5-(2-(5-fluoro-1-methyl-2-oxo-1,2-dihydropyridin-3-yl)pyrrolidin-1-yl)-N-(1-methylcyclopropyl)pyrazolo[1,5-a]pyrimidine-3-carboxamide], the concentration for half-maximal inhibition (IC50) in test [1] was 0.0021 µM; in test [2] (setting [3]) it was 0.616 µM.
Take `Cn1cc(F)cc([C@H]2CCCN2c2ccn3ncc(C(=O)NC4CCC4)c3n2)c1=O` [Example 230, (R)-N-cyclobutyl-5-(2-(5-fluoro-1-methyl-2-oxo-1,2-dihydropyridin-3-yl)pyrrolidin-1-yl)pyrazolo[1,5-a]pyrimidine-3-carboxamide]: the IC50 stood at 0.003 µM in test [1] and 0.666 µM in test [2] (setting [3]).
Take `CC1(O)CN(C(=O)c2cnn3ccc(N4CCC[C@@H]4c4cncc(F)c4)nc23)C1` [Example 92, (R)-(5-(2-(5-fluoropyridin-3-yl)pyrrolidin-1-yl)pyrazolo[1,5-a]pyrimidin-3-yl)(3-hydroxy-3-methylazetidin-1-yl)methanone]: the values for the half-maximal inhibitory concentration (IC50) in test [1] and in test [2] (setting [3]) were 1.01 µM and > 1 µM, respectively.
For the compound `CC1(NC(=O)c2cnn3ccc(N4[C@H](CO)CC[C@@H]4c4cncc(F)c4)nc23)CC1` [Example 214, 5-((2R,5S)-2-(5-fluoropyridin-3-yl)-5-(hydroxymethyl)pyrrolidin-1-yl)-N-(1-methylcyclopropyl)pyrazolo[1,5-a]pyrimidine-3-carboxamide], the figures for the IC50 in test [1] and in test [2] (setting [3]) were 0.0086 µM and > 1 µM, respectively.
Regarding `O=C(c1cnn2ccc(N3CCC[C@@H]3c3cncc(F)c3)nc12)N1CCCC1` [Example 94, (R)-(5-(2-(5-fluoropyridin-3-yl)pyrrolidin-1-yl)pyrazolo[1,5-a]pyrimidin-3-yl)(pyrrolidin-1-yl)methanone], the IC50 was 0.568 µM in test [1] and > 1 µM in test [2] (setting [3]).
